Data: US9278914B2, “SARMs and method of use thereof” (UNIVERSITY OF TENNESSEE RESEARCH FOUNDATION, priority 2004, dated 2016)

Legend:
[1] = test system: castrated (ORX) male Sprague-Dawley rats; test: Anabolic and androgenic activity in castrated (ORX) male rats, daily oral gavage for fourteen days; format: in vivo, rat; conditions: for Levator ani muscle weight, maximally stimulated: maximal stimulation, comparator; for Emax levator ani / Emax prostate / Emax seminal vesicles: nonlinear regression, sigmoid Emax model; for Anabolic muscle/prostate ratio: castrated rats
Description: Male Sprague-Dawley rats weighing approximately 200 g were purchased from Harlan Bioproducts for Science (Indianapolis, Ind.).
The test article for this study was weighed and dissolved in 10% DMSO (Fisher) diluted with PEG 300 (Acros Organics, N.J.) for preparation of the appropriate dosage concentrations. […] Animals were randomly assigned to one of seven groups consisting of 4 to 5 animals per group. Control groups (intact and ORX) were administered vehicle daily. […] Where appropriate, animals were castrated on day one of the study.
(§1) In addition, ventral prostate, seminal vesicles, and levator ani muscle were removed, individually weighed, normalized to body weight, and expressed as a percentage of intact control. Student's T-test was used to compare individual dose groups to the intact control group. Significance was defined a priori as a P-value<0.05. Ventral prostate and seminal vesicle weights were evaluated as a measure of androgenic activity, whereas levator ani muscle weight was evaluated as a measure of anabolic activity. Blood was collected from the abdominal aorta, centrifuged, and sera were frozen at −80° C. prior to determination of serum hormone levels. Serum luteinizing hormone (LH) and follicle stimulating hormone (FSH) concentrations were determined.
(§2) The test article for this study was weighed and dissolved in 10% DMSO (Fisher) diluted with PEG 300 (Acros Organics, N.J.) for preparation of the appropriate dosage concentrations. […] Animals were randomly assigned to one of seven groups consisting of 4 to 5 animals per group. Control groups (intact and ORX) were administered vehicle daily. Compound of formula S-XXIII was administered via oral gavage at doses of 0.01, 0.03, 0.1, 0.3, 0.75, and 1 mg/day to both intact and ORX groups. Where appropriate, animals were castrated on day one of the study. Treatment with compound of formula S-XXIII began nine days post ORX and was administered daily via oral gavage for fourteen days.
Male Sprague-Dawley rats weighing approximately 200 g were purchased from Harlan Bioproducts for Science (Indianapolis, Ind.). […] Regenerative effects of the compound of formula S-XXIV in chronically (9 days) ORX rats was similarly evaluated.
as §2, with “S-XXIV” for “S-XXIII”
Male Sprague-Dawley rats weighing approximately 200 g were purchased from Harlan Bioproducts for Science (Indianapolis, Ind.). […] Anabolic and androgenic activity of compound of formula S-XXV in intact animals was evaluated, and the dose response in acutely orchidectomized (ORX) animals was evaluated as well.
The compound was weighed and dissolved in 10% DMSO (Fisher) diluted with PEG 300 (Acros Organics, N.J.) for preparation of the appropriate dosage concentrations.

[2] = test system: intact male Sprague-Dawley rats; test: Anabolic and androgenic activity in intact male rats, daily oral gavage; format: in vivo, rat
Description: The test article for this study was weighed and dissolved in 10% DMSO (Fisher) diluted with PEG 300 (Acros Organics, N.J.) for preparation of the appropriate dosage concentrations. The animals were housed in groups of 2 to 3 animals per cage. Animals were randomly assigned to one of seven groups consisting of 4 to 5 animals per group. Control groups (intact and ORX) were administered vehicle daily. […] Where appropriate, animals were castrated on day one of the study. Treatment with compound of formula S-II began nine days post ORX and was administered daily via oral gavage for fourteen days.
as §1, with “The animals were sacrificed under anesthesia (ketamine/xyalzine, 87:13 mg/kg) and body weights were recorded. In” for “In”
(§3) The test article for this study was weighed and dissolved in 10% DMSO (Fisher) diluted with PEG 300 (Acros Organics, N.J.) for preparation of the appropriate dosage concentrations. The animals were housed in groups of 2 to 3 animals per cage. Animals were randomly assigned to one of seven groups consisting of 4 to 5 animals per group. Control groups (intact and ORX) were administered vehicle daily. Compound of formula S-XXIII was administered via oral gavage at doses of 0.01, 0.03, 0.1, 0.3, 0.75, and 1 mg/day to both intact and ORX groups. Where appropriate, animals were castrated on day one of the study. Treatment with compound of formula S-XXIII began nine days post ORX and was administered daily via oral gavage for fourteen days.
as §3, with “S-XXIV” for “S-XXIII”, “study.” for “study. Treatment with compound of formula S-XXIII began nine days post ORX and was administered daily via oral gavage for fourteen days.”

## CC(=O)Nc1ccc(OC[C@](C)(O)C(=O)Nc2ccc([N+](=O)[O-])c(C(F)(F)F)c2)cc1 [S-4, S-3-(4-acetylaminophenoxy)-2-hydroxy-2-methyl-N-(4-nitro-3-trifluoromethylphenyl) propionamide, reference compound]
[1]
  Levator ani muscle weight, maximally stimulated: 101%

## C[C@](O)(COc1ccc(C#N)c(F)c1)C(=O)Nc1ccc(C#N)c(C(F)(F)F)c1 [S-XXIII]
[2]; 0.01 mg/day oral
  Levator ani muscle weight: 116%±7%
  Prostate weight: 98%±21%
  Seminal vesicle weight: 115%±12%
[2]; 0.03 mg/day oral
  Levator ani muscle weight: 134%±8%
  Prostate weight: 99%±8%
  Seminal vesicle weight: 109%±17%
[2]; 0.1 mg/day oral
  Levator ani muscle weight: 134%±21%
  Prostate weight: 85%±18%
  Seminal vesicle weight: 106%±13%
[2]; 0.3 mg/day oral
  Levator ani muscle weight: 134%±11%
  Prostate weight: 98%±22%
  Seminal vesicle weight: 121%±11%
[2]; 0.75 mg/day oral
  Levator ani muscle weight: 142%±10%
  Prostate weight: 126%±17%
  Seminal vesicle weight: 157%±5%
[2]; 1 mg/day oral
  Levator ani muscle weight: 147%±10%
  Prostate weight: 126%±17%
  Seminal vesicle weight: 136%±3%
[1]; ORX rats
  Dose able to fully restore/maintain levator ani muscle weight: 0.03 mg/day
  ED50 levator ani: 0.03 ± 0.01 mg/day
  ED50 prostate: 0.21 ± 0.04 mg/day
  ED50 seminal vesicles: 0.2 ± 0.04 mg/day
  Emax levator ani: 147%±10%
  Emax prostate: 147%±10%
  Emax seminal vesicles: 188%±135%
[1]; ORX rats, 0.01 mg/day oral
  Levator ani muscle weight: 71%±4%
  Prostate weight: 24%±4%
  Seminal vesicle weight: 15%±2%
[1]; ORX rats, 0.03 mg/day oral
  Levator ani muscle weight: 101%±15%
  Prostate weight: 37%±9%
  Seminal vesicle weight: 25%±9%
[1]; ORX rats, 0.1 mg/day oral
  Levator ani muscle weight: 125%±20%
  Prostate weight: 50%±11%
  Seminal vesicle weight: 67%±20%
[1]; ORX rats, 0.3 mg/day oral
  Levator ani muscle weight: 126%±14%
  Prostate weight: 88%±16%
  Seminal vesicle weight: 113%±6%
[1]; ORX rats, 0.75 mg/day oral
  Levator ani muscle weight: 151±9 % of intact controls
  Prostate weight: 132%±16%
  Seminal vesicle weight: 155%±16%
[1]; ORX rats, 1 mg/day oral
  Levator ani muscle weight: 143±17 % of intact controls
  Prostate weight: 118±12 % of intact controls
  Seminal vesicle weight: 160%±7%

## C[C@](O)(COc1ccc(C#N)cc1)C(=O)Nc1ccc(C#N)c(Cl)c1 [S-XXIV, (S)—N-(3-chloro-4-cyanophenyl)-3-(4-cyanophenoxy)-2-hydroxy-2-methylpropanamide]
[2]; 0.01 mg/day oral
  Levator ani muscle weight: 107%±5%
  Prostate weight: 103%±10%
[2]; 0.03 mg/day oral
  Levator ani muscle weight: 103%±7%
  Prostate weight: 99%±10%
[2]; 0.1 mg/day oral
  Levator ani muscle weight: 97%±7%
  Prostate weight: 58%±10%
[2]; 0.3 mg/day oral
  Levator ani muscle weight: 103%±5%
  Prostate weight: 58%±15%
[2]; 0.75 mg/day oral
  Levator ani muscle weight: 118%±7%
  Prostate weight: 65%±20%
[2]; 1 mg/day oral
  Levator ani muscle weight: 118%±7%
  Prostate weight: 77%±23%
[1]; ORX rats
  Dose restoring 100% of levator ani muscle weight: 0.1 mg/day
  Prostate weight restored at the dose restoring 100% levator ani: 43±15%
[1]; ORX rats, 0.01 mg/day oral
  Levator ani muscle weight: 52%±8%
  Prostate weight: 17%±6%
  Seminal vesicle weight: 10%±3%
[1]; ORX rats, 0.03 mg/day oral
  Levator ani muscle weight: 67%±9%
  Prostate weight: 31%±3%
  Seminal vesicle weight: 13%±4%
[1]; ORX rats, 0.1 mg/day oral
  Levator ani muscle weight: 98%±10%
  Prostate weight: 43%±15%
  Seminal vesicle weight: 21%±6%
[1]; ORX rats, 0.3 mg/day oral
  Levator ani muscle weight: 103%±12%
  Prostate weight: 54%±17%
  Seminal vesicle weight: 43%±8%
[1]; ORX rats, 0.75 mg/day oral
  Levator ani muscle weight: 105%±12%
  Prostate weight: 58%±10%
  Seminal vesicle weight: 51%±9%
[1]; ORX rats, 1 mg/day oral
  Seminal vesicle weight: 69%±14%
[1]; 0.01 mg/day
  Anabolic muscle/prostate ratio: 3.02
[1]; 0.03 mg/day
  Anabolic muscle/prostate ratio: 2.13
[1]; 0.1 mg/day
  Anabolic muscle/prostate ratio: 2.27
[1]; 0.3 mg/day
  Anabolic muscle/prostate ratio: 1.90
[1]; 0.75 mg/day
  Anabolic muscle/prostate ratio: 1.83
[1]; 1 mg/day
  Anabolic muscle/prostate ratio: 1.51

## C[C@](O)(COc1ccc(C#N)cc1)C(=O)Nc1ccc(C#N)c(C(F)(F)F)c1 [S-XXV]
[2]; 0.01 mg/day oral
  Levator ani muscle weight: 120%±12%
  Prostate weight: 111%±21%
  Seminal vesicle weight: 94%±9%
[2]; 0.03 mg/day oral
  Levator ani muscle weight: 116%±7%
  Prostate weight: 88%±15%
  Seminal vesicle weight: 77%±11%
[2]; 0.1 mg/day oral
  Levator ani muscle weight: 128%±7%
  Prostate weight: 77%±17%
  Seminal vesicle weight: 80%±9%
[2]; 0.3 mg/day oral
  Levator ani muscle weight: 134%±7%
  Prostate weight: 71%±16%
  Seminal vesicle weight: 73%±12%
[2]; 0.75 mg/day oral
  Levator ani muscle weight: 125%±9%
  Prostate weight: 71%±10%
  Seminal vesicle weight: 77%±10%
[2]; 1 mg/day oral
  Levator ani muscle weight: 146%±17%
  Prostate weight: 87%±13%
  Seminal vesicle weight: 88%±14%
[1]; ORX rats
  Dose able to fully restore/maintain levator ani muscle weight: > 0.1 mg/day
  ED50 levator ani: 0.02 ± 0.01 mg/day
  ED50 prostate: 0.09 ± 0.07 mg/day
  ED50 seminal vesicles: 0.17 ± 0.05 mg/day
  Emax levator ani: 131%±2%
  Emax prostate: 83%±25%
  Emax seminal vesicles: 85%±11%
[1]; ORX rats, 0.01 mg/day oral
  Levator ani muscle weight: 59%±6%
  Prostate weight: 8%±2%
  Seminal vesicle weight: 12%±4%
[1]; ORX rats, 0.03 mg/day oral
  Levator ani muscle weight: 85%±9%
  Prostate weight: 20%±5%
  Seminal vesicle weight: 17%±5%
[1]; ORX rats, 0.1 mg/day oral
  Levator ani muscle weight: 112%±10%
  Prostate weight: 51%±19%
  Seminal vesicle weight: 35%±10%
[1]; ORX rats, 0.3 mg/day oral
  Levator ani muscle weight: 122%±16%
  Prostate weight: 56%±9%
  Seminal vesicle weight: 61%±15%
[1]; ORX rats, 0.75 mg/day oral
  Levator ani muscle weight: 127±12 % of intact controls
  Prostate weight: 80%±28%
  Seminal vesicle weight: 70%±14%
[1]; ORX rats, 1 mg/day oral
  Levator ani muscle weight: 129.66±2 % of intact controls
  Prostate weight: 74±12.5 % of intact controls
  Seminal vesicle weight: 80%±6%

## CCC(=O)O[C@H]1CC[C@H]2[C@@H]3CCC4=CC(=O)CC[C@]4(C)[C@H]3CC[C@]12C [Testosterone propionate, reference compound]
[1]
  Levator ani muscle weight, maximally stimulated: 104%
